Structures are written as SMILES. pIC50: −log10 of the molar value. Structures can show the parent of a compound that is named as a salt. Where two headings read alike, the source gives them in different places.

Data on one molecule can be found in US8501166B2, “Pyrimidinyl indole compounds” (Hutchison Medipharma Limited, priority 2010, dated 2013).

Assay [1] deals with T1, IKKβ (Homo sapiens, UniProt O14920).
T1 sequence (O14920 1-756): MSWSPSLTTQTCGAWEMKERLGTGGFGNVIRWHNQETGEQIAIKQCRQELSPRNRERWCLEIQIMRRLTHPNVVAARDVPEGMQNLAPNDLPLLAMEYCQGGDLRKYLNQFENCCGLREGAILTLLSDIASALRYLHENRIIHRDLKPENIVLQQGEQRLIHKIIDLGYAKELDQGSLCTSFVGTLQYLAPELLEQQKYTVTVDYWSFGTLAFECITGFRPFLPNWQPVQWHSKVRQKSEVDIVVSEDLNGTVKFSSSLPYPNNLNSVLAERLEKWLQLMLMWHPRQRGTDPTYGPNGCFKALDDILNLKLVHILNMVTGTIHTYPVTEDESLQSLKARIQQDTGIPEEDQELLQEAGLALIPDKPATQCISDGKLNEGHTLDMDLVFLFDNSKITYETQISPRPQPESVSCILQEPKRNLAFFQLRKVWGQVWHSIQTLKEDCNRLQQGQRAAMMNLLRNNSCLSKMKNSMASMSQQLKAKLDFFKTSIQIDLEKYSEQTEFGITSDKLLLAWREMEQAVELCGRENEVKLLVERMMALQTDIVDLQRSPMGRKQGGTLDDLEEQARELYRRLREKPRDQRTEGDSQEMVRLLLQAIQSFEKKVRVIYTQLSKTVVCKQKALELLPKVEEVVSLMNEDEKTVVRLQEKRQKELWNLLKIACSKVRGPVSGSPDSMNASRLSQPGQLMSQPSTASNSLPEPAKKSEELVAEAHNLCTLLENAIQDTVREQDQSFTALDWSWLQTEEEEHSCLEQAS
Description: IKKβ kinase assay (IKKβ-Inhibitor Screening Kit, ELISA). Type of assay: biochemical. The conditions noted are these: IKKβ-Inhibitor Screening Kit (Calbiochem), GST-IκBα substrate. As for the experimental part:
The IKKβ kinase assay is used to assess the effect of a compound of the present invention on the enzymatic activity of IKKβ kinase. The IKKβ kinase assay is performed in vitro using an IKKβ-Inhibitor Screening Kit (Calbiochem., Cat.No. CBA044). All reactions (50 μL) are started by adding 10 μL of kinase buffer (kit component, No. JA9130), 10 μL of GST-IKBa substrate (IKKb substrate, kit component, No. JA9127), 10 μL of IKKβ (2.5 ng/well, kit component, No. 481404), 10 μL of the test compound (DMSO solution) or H2O, and 10 μL of ATP/MgCl2 (kit component, No. JA7914) and then incubating at 30° C. for 30 min. The contents of the wells are then discarded. Each well is washed 3 times with 200 μL 1× wash buffer (kit component, NO. JA1617, 1:20 dilution). 100 μL of anti-phospho IκBα (Ser^32/Ser^36) antibody conjugate (kit component, No. JA9126) is added to each well and incubated at room temperature for 1 h. Then the wells are washed 3 times with 1× wash buffer (kit component, NO. JA1617, 1:20 dilution), […] and 100 μL HRP-conjugate (kit component, No. JA7643) is added to each well and incubated at room temperature for 1 h. Then the wells are washed 3 times with 200 μL 1× wash buffer (kit component, NO. JA1617, 1:20 dilution) and 100 μL TMB substrate conjugate (kit component, No. JA1608) is added to each well. The plate is incubated at room temperature until the color changes. […]
A general note: ELISA stands for enzyme-linked immunosorbent assay.

Assay [2] concerns Skov3-luc cells. Description: Cell viability test, combination study, Skov3-luc. The class given is cell-based. The conditions noted are these: Homo sapiens, 72 h, read-out: Ave. Inhibition rate. On the procedure: To evaluate biological activity of a compound in vitro, the cell viability test is applied, in which, IKKβ receptor plays an important role in cell survival and proliferation. Once the IKKβ pathway is blocked by inhibitors, a cell can go through apoptosis or death. The cell viability test provides information on cell survival after treatment with IKK inhibitors.
BxPC-3 cells (ATCC #CRL-1687; human pancreatic cancer cell line) are grown in Roswell Park Memorial Institute (RPMI) 1640 media (Gibco #A10491-01) supplemented with 10% fetal bovine serum (FBS) (Gibco #10099-141). Skov3-luc cells (ATCC, human ovarian carcinoma cell line) are grown in McCoy's 5a medium (Gibco#16600) supplemented with 10% FBS (Gibco#10099-141). For compound testing, BxPc-3 and Skov3-Luc cells are seeded at 2000 and 5000 cells/well respectively in 100 μL of corresponding media specified above for each cell line in 96-well plates 20 h prior to treatment. Cells are treated with a test compound at eight different concentrations in the presence of 0.5% DMSO for 72 h. Cell death in each well is determined by the addition of 20 μL of the One Solution Reagent (CELLTITER 96® AQueous One Solution Cell Proliferation Assay, Promega #G3580). After 2-4 h of incubation at 37° C., optical densities at 492 nm are measured with a microplate reader Inhibition of cell viability is determined by comparison to the control cells treated in the absence of a test compound.
For the combination study of the compound with other antitumor agents, BxPc-3 and Skov3-Luc cells are seeded at 2000 and 5000 cells/well respectively in 100 μL corresponding media specified above for each cell line in 96-well plates 20 h prior to the treatment. […] Cell death in each well is determined by the addition of 20 μL of the One Solution Reagent (CELLTITER 96® AQueous One Solution Cell Proliferation Assay, Promega #G3580). After 2-4 h of incubation at 37° C., optical densities at 492 nm are measured with a microplate reader Inhibition of cell viability is determined by comparison to the control cells treated in the absence of a test compound. […]

Usually pIC50 stands for the IC50 on a negative log10 scale, so that one unit is a factor of ten. Higher therefore signals a low IC50. What is called inhibition is the percentage by which the read-out fell short of the control. In assay [1], `O=C(NC1CC1)c1cccc2[nH]c(-c3nc(N[C@@H]4CCC[C@@H]4O)ncc3Cl)cc12` [Example 1, 2-{5-Chloro-2-[(1R,2S)-2-hydroxycyclopentylamino]pyrimidin-4-yl}-N-cyclopropyl-1H-indole-4-carboxamide hydrochloride] showed a pIC50 of 7.82. For the same molecule, the inhibition at 12.5 µM was determined as 21.8% in assay [2] (Example 1 12.5 μM alone) and 82.3% in assay [2] (Vincristine 0.25 μM + Example 1 12.5 μM).
